{"source": "EPA's ToxRefDB 2", "key": {"rat [1]": {"test_system": "rat", "conditions": "Subchronic oral toxicity in rodents, sprague dawley, Gavage/Intubation, dose end: 91 day, group: systemic"}, "rat [2]": {"test_system": "rat", "conditions": "Sub-acute repeat dose toxicity; Oral; Gavage/Intubation; dose end: 4 day; group: systemic; systemic / clinical chemistry / [other] / [other] + systemic / clinical chemistry / 5' nucleotidase / 5' nucleotidase + systemic / clinical …"}, "rat [3]": {"test_system": "rat", "conditions": "Sub-acute repeat dose toxicity, Oral, Gavage/Intubation, dose end: 8 day, group: systemic"}, "rat [4]": {"test_system": "rat", "conditions": "Sub-acute repeat dose toxicity, Oral, Gavage/Intubation, dose end: 12 day, group: systemic"}, "dog": {"test_system": "dog", "conditions": "Subchronic oral toxicity in nonrodent, beagle, Gavage/Intubation, dose end: 93 day"}, "rat [5]": {"test_system": "rat", "conditions": "Sub-acute repeat dose toxicity, Oral, Gavage/Intubation, dose end: 5 day, group: systemic"}, "rat [6]": {"test_system": "rat", "conditions": "Sub-acute repeat dose toxicity, Oral, Gavage/Intubation, dose end: 14 day, group: systemic"}, "rat [7]": {"test_system": "rat", "conditions": "Sub-acute repeat dose toxicity; Oral; Gavage/Intubation; dose end: 5 day; group: systemic; systemic / in life observation / food consumption / food consumption"}, "rat [8]": {"test_system": "rat", "conditions": "Multigenerational reproductive toxicity study, sprague dawley, Oral, Feed, dose end: 2 generation"}, "rat [9]": {"test_system": "rat", "conditions": "Subchronic oral toxicity in rodents, other, Feed, dose end: 6 month, group: systemic"}, "rat [10]": {"test_system": "rat", "conditions": "Combined chronic toxicity/carcinogenicity; wistar; Oral; Feed; dose end: 24 month; group: systemic; systemic / organ weight / spleen / absolute + systemic / organ weight / spleen / relative to body weight + systemic / pathology microscopic…"}, "mouse": {"test_system": "mouse", "conditions": "Carcinogenicity; other; Oral; Feed; dose end: 24 month; group: systemic; systemic / hematology / anemia / anemia - nos + systemic / organ weight / liver / absolute + systemic / organ weight / liver / relative to …"}, "[11]": {"conditions": "systemic / in life observation / clinical signs / abnormal feces + systemic / in life observation / clinical signs / fur (altered appearance…"}, "[12]": {"conditions": "systemic / in life observation / mortality / mortality + systemic / organ weight / testes / absolute + systemic / pathology microscopic / …"}, "[13]": {"conditions": "systemic / clinical chemistry / albumin / albumin + systemic / clinical chemistry / globulins / globulins + systemic / clinical chemistry / …"}, "[14]": {"conditions": "systemic / hematology / neutrophils / neutrophils"}, "[15]": {"conditions": "systemic / hematology / neutrophils / neutrophils + systemic / pathology microscopic / intestine small / inflammation + systemic / pathology…"}, "[16]": {"conditions": "group: maternal, reproductive / reproductive performance / estrous cycle / absent corpora lutea"}, "[17]": {"conditions": "group: systemic, systemic / organ weight / testes / absolute + systemic / pathology microscopic / testes / degeneration"}, "[18]": {"conditions": "group: systemic, systemic / organ weight / testes / absolute + systemic / pathology microscopic / testes / degeneration + systemic / in life observation / …"}, "[19]": {"conditions": "systemic / hematology / neutrophils / neutrophils + systemic / pathology microscopic / mesentery / inflammation + systemic / pathology …"}, "[20]": {"conditions": "systemic / clinical chemistry / 5' nucleotidase / 5' nucleotidase + systemic / clinical chemistry / glucose / glucose + systemic / clinical …"}, "[21]": {"conditions": "systemic / clinical chemistry / potassium / potassium"}, "[22]": {"conditions": "group: offspring, systemic / in life observation / body weight / offspring (pup) weight"}, "[23]": {"conditions": "group: parental, systemic / in life observation / body weight / body weight + systemic / in life observation / body weight / body weight gain + systemic / in…"}, "[24]": {"conditions": "systemic / pathology gross / urinary bladder / lesion(s) (nos) + systemic / pathology microscopic / blood vessel / [other] + systemic / …"}}}
{"smiles": "CCc1nn(C2CCCCC2)c2cc(C3(C#N)CCC(C(=O)O)CC3)ccc12", "note": "(stereo unspecified)", "values": [{"measurement": "LEL", "setting": "rat [1]; [11]", "value": 1, "unit": "mg/kg/day"}, {"measurement": "NEL", "setting": "rat [1]; [11]", "value": "< 1", "unit": "mg/kg/day"}, {"measurement": "LOAEL", "setting": "rat [1]; [12]", "value": "> 15", "unit": "mg/kg/day"}, {"measurement": "NOAEL", "setting": "rat [1]; [12]", "value": "≥ 15", "unit": "mg/kg/day"}, {"measurement": "LEL", "setting": "rat [2]", "value": 30, "unit": "mg/kg/day"}, {"measurement": "LOAEL", "setting": "rat [2]", "value": "> 30", "unit": "mg/kg/day"}, {"measurement": "NEL", "setting": "rat [2]", "value": "< 30", "unit": "mg/kg/day"}, {"measurement": "NOAEL", "setting": "rat [2]", "value": "≥ 30", "unit": "mg/kg/day"}, {"measurement": "LOAEL", "setting": "rat [3]; [13]", "value": "> 30", "unit": "mg/kg/day"}, {"measurement": "NOAEL", "setting": "rat [3]; [13]", "value": "≥ 30", "unit": "mg/kg/day"}, {"measurement": "LEL", "setting": "rat [3]; [14]", "value": 15, "unit": "mg/kg/day"}, {"measurement": "NEL", "setting": "rat [3]; [14]", "value": "< 15", "unit": "mg/kg/day"}, {"measurement": "LOAEL", "setting": "rat [4]; [13]", "value": "> 30", "unit": "mg/kg/day"}, {"measurement": "NOAEL", "setting": "rat [4]; [13]", "value": "≥ 30", "unit": "mg/kg/day"}, {"measurement": "LEL", "setting": "rat [4]; [15]", "value": 15, "unit": "mg/kg/day"}, {"measurement": "NEL", "setting": "rat [4]; [15]", "value": "< 15", "unit": "mg/kg/day"}, {"measurement": "LEL", "setting": "dog; [16]", "value": 1, "unit": "mg/kg/day"}, {"measurement": "LOAEL", "setting": "dog; [16]", "value": "> 10", "unit": "mg/kg/day"}, {"measurement": "NEL", "setting": "dog; [16]", "value": "< 1", "unit": "mg/kg/day"}, {"measurement": "NOAEL", "setting": "dog; [16]", "value": "≥ 10", "unit": "mg/kg/day"}, {"measurement": "LEL", "setting": "dog; [17]", "value": 1, "unit": "mg/kg/day"}, {"measurement": "NEL", "setting": "dog; [17]", "value": "< 1", "unit": "mg/kg/day"}, {"measurement": "LOAEL", "setting": "dog; [18]", "value": "> 10", "unit": "mg/kg/day"}, {"measurement": "NOAEL", "setting": "dog; [18]", "value": "≥ 10", "unit": "mg/kg/day"}, {"measurement": "LOAEL", "setting": "rat [5]; [13]", "value": "> 30", "unit": "mg/kg/day"}, {"measurement": "NOAEL", "setting": "rat [5]; [13]", "value": "≥ 30", "unit": "mg/kg/day"}, {"measurement": "LEL", "setting": "rat [5]; [19]", "value": 15, "unit": "mg/kg/day"}, {"measurement": "NEL", "setting": "rat [5]; [19]", "value": "< 15", "unit": "mg/kg/day"}, {"measurement": "LOAEL", "setting": "rat [6]; [20]", "value": "> 60", "unit": "mg/kg/day"}, {"measurement": "NOAEL", "setting": "rat [6]; [20]", "value": "≥ 60", "unit": "mg/kg/day"}, {"measurement": "LEL", "setting": "rat [6]; [21]", "value": 3, "unit": "mg/kg/day"}, {"measurement": "NEL", "setting": "rat [6]; [21]", "value": "< 3", "unit": "mg/kg/day"}, {"measurement": "LEL", "setting": "rat [7]", "value": 1, "unit": "mg/kg/day"}, {"measurement": "LOAEL", "setting": "rat [7]", "value": "> 10", "unit": "mg/kg/day"}, {"measurement": "NEL", "setting": "rat [7]", "value": "< 1", "unit": "mg/kg/day"}, {"measurement": "NOAEL", "setting": "rat [7]", "value": "≥ 10", "unit": "mg/kg/day"}]}
{"smiles": "CN(C)C(=O)Nc1ccc(Cl)c(Cl)c1", "note": "[Diuron]", "values": [{"measurement": "LEL", "setting": "rat [8]; [22]", "value": 139, "unit": "mg/kg/day"}, {"measurement": "LOAEL", "setting": "rat [8]; [22]", "value": 139, "unit": "mg/kg/day"}, {"measurement": "NEL", "setting": "rat [8]; [22]", "value": 18.9, "unit": "mg/kg/day"}, {"measurement": "NOAEL", "setting": "rat [8]; [22]", "value": 18.9, "unit": "mg/kg/day"}, {"measurement": "LEL", "setting": "rat [8]; [23]", "value": 101, "unit": "mg/kg/day"}, {"measurement": "LOAEL", "setting": "rat [8]; [23]", "value": 101, "unit": "mg/kg/day"}, {"measurement": "NEL", "setting": "rat [8]; [23]", "value": 14.8, "unit": "mg/kg/day"}, {"measurement": "NOAEL", "setting": "rat [8]; [23]", "value": 14.8, "unit": "mg/kg/day"}, {"measurement": "LEL", "setting": "rat [9]; [24]", "value": 0.3, "unit": "mg/kg/day"}, {"measurement": "NEL", "setting": "rat [9]; [24]", "value": "< 0.3", "unit": "mg/kg/day"}, {"measurement": "NOAEL", "setting": "rat [9]; [24]", "value": 0.7, "unit": "mg/kg/day"}, {"measurement": "LOAEL", "setting": "rat [9]; systemic / pathology microscopic / spleen / pigmentation", "value": 1.6, "unit": "mg/kg/day"}, {"measurement": "LEL", "setting": "rat [10]", "value": 1, "unit": "mg/kg/day"}, {"measurement": "LOAEL", "setting": "rat [10]", "value": 1, "unit": "mg/kg/day"}, {"measurement": "NEL", "setting": "rat [10]", "value": "< 1", "unit": "mg/kg/day"}, {"measurement": "NOAEL", "setting": "rat [10]", "value": "< 1", "unit": "mg/kg/day"}, {"measurement": "LEL", "setting": "mouse", "value": 640, "unit": "mg/kg/day"}, {"measurement": "LOAEL", "setting": "mouse", "value": 640, "unit": "mg/kg/day"}, {"measurement": "NEL", "setting": "mouse", "value": 50.8, "unit": "mg/kg/day"}, {"measurement": "NOAEL", "setting": "mouse", "value": 50.8, "unit": "mg/kg/day"}]}
